Test results reported in PubChem BioAssay AID743403 (Broad Institute, 2014).
Values joined by “and” are separate entries in the source; they are usually repeats but may differ in a detail not shown here. Equal values may be shown once. Active and inactive are the calls of the source. How the calls were made is not given here.

Key:
[1] = tested on: Cryptococcus neoformans cell lysis, plate reader; experiment: fungal cell lysis by compounds – dry powder, set 2, dose response (AID 743403)
[2] = as above; conditions: Cryptococcus neoformans cell lysis, plate reader; at 35 µM (top of the series)

| Structure (SMILES) | AC50 [1] | activity change, negative = active [2] |
| --- | --- | --- |
| Clc1ccccc1OCCn1cnc2ccccc21 | 36.3 µM | – |
| Cc1ccc(OCCn2cnc3cc(C)c(C)cc32)cc1 | 15.9 µM | – |
| CS(=O)(=O)c1ccc(OCCn2cnc3ccccc32)cc1 | – | -15.6% (inactive) |
| c1ccc(-c2ccc(OCCn3cnc4ccccc43)cc2)cc1 | – | -12.5% (inactive) |
| COCc1nc2ccccc2n1CCOc1ccc(C(C)(C)C)cc1 | – | 5.6% (inactive) |
| CCCc1nc2ccccc2n1CCOc1ccccc1 | – | 0.352% (inactive) |
| Cc1cccc(OCCn2c(=S)[nH]c3c(F)cccc32)c1 | – | 1.05% (inactive) |
| S=c1[nH]c2cccc(Cl)c2n1CCOc1ccccc1 | 8.43 µM | – |
| Cc1cc2ncn(CCOc3ccc4c(c3)CCC4)c2cc1C | 5.59 µM | – |
| COc1ccccc1OCCn1c(=S)[nH]c2ccccc21 | – | 3.55% (inactive) |
| Cc1ccc(OCCn2cnc3ccccc32)c(C)c1 | 7.4 µM | – |
| Cc1ccc(C(C)C)c(OCCn2c(=O)[nH]c3ccccc32)c1 | – | -16.7% (inactive) |
| CC(C)Oc1ccc(OCCn2c(=S)[nH]c3ccccc32)cc1 | 29.7 µM | – |
| Cc1ccc(C(C)C)c(OCCn2c(NC#N)nc3ccccc32)c1 | – | -9.31% (inactive) |
| Fc1cccc2c1[nH]c(=S)n2CCOc1ccccc1 | 26.2 µM | – |
| COc1ccccc1OCCn1c(SC)nc2ccccc21 | > 70 µM (inactive) | – |
| Clc1ccc(OCCn2cnc3ccccc32)c(Cl)c1 | 7.76 µM | – |
| Cc1cccc(OCCn2c(=S)[nH]c3ccccc32)c1 | 19.5 µM | – |
| Cc1ccc(C(C)C)c(OCCn2c(=S)[nH]c3ccccc32)c1 | 4.95 µM | – |
| CCCCc1nc2ccccc2n1CCOc1ccccc1 | – | 0.005% (inactive) |
| NCC(=O)Nc1ccc(-n2nc(C(F)(F)F)cc2-c2ccc3c(ccc4ccccc43)c2)cc1 | 10.9 µM | – |
| CC(C)c1ccccc1NCCn1c(=S)[nH]c2ccccc21 | – | 0.673% (inactive) |
| COc1ccc(OCCn2cnc3ccccc32)cc1 | – | -22.1% (inactive) |

| Structure (SMILES) | AC50 [1] | activity change, negative = active [2] |
| --- | --- | --- |
| c1ccc2c(c1)ncn2CCOc1ccc2c(c1)CCC2 | 3.76 µM | – |
| CCc1nc2ccccc2n1CCOc1ccccc1 | – | 5.25% (inactive) |
| CSc1nc2ccccc2n1CCOc1cc(C)ccc1C(C)C | – | -4.35% (inactive) |
| CC(C)c1ccccc1OCCn1c(=S)[nH]c2ccccc21 | 11.9 µM | – |
| CC(C)(C)c1ccc(OCCn2cnc3ccccc32)cc1 | 30.5 µM | – |
| Cc1cc2ncn(CCOc3ccccc3)c2cc1C | 25 µM | – |
| Cc1cc2ncn(CCOc3ccccc3C)c2cc1C | 19.8 µM | – |
| Cc1cccc(OCCn2c(=S)[nH]c3ccc(C(F)(F)F)cc32)c1 | – | 4.5% (inactive) |
| O=S(=O)(c1ccc(OCCn2cnc3ccccc32)cc1)N1CCOCC1 | – | -21.8% (inactive) |
| Fc1ccc2c(c1)[nH]c(=S)n2CCOc1ccccc1 | 23.2 µM and 28.7 µM | – |
| CC(C)(C)c1ccc(OCCn2cnc3ccccc32)c(Cl)c1 | 20.8 µM | – |
| FC(F)(F)c1cccc(OCCn2cnc3ccccc32)c1 | > 70 µM (inactive) | – |
| Fc1ccc(OCCn2c(=S)[nH]c3ccccc32)cc1 | – | -33.3% (inactive) |
| CSc1nc2ccccc2n1CCOc1ccc(C)cc1 | > 70 µM (inactive) | – |
| Cc1ccc2c(c1)[nH]c(=S)n2CCOc1ccccc1 | 17.4 µM | – |
| CC(C)Oc1cccc(OCCn2cnc3ccccc32)c1 | 29 µM | – |
| Cc1ccc(C(C)C)c(OCCn2c(CO)nc3ccccc32)c1 | – | -20.4% (inactive) |
| S=c1[nH]c2cc(Cl)ccc2n1CCOc1ccccc1 | – | 27% (inactive) |
| OCc1nc2ccccc2n1CCOc1ccccc1 | – | -9.32% (inactive) |
| Cc1cccc(OCCn2c(=S)[nH]c3cc(F)ccc32)c1 | 14.8 µM and 15.5 µM | – |
| Cc1ccc(C(C)C)c(OCCn2c(N)nc3ccccc32)c1 | – | 69.2% (inactive) |
| Clc1ccc(OCCn2cnc3ccccc32)cc1 | 32.5 µM | – |
| CCSc1nc2ccccc2n1CCOc1ccccc1 | – | -22.6% (inactive) |
